Measurements from patent publication US11384060B2, “Amide compounds and use thereof” (ALPHALA CO., LTD., priority 2017, dated 2022).
Where two headings read alike, the source gives them in different places.

Key:
[1] = biological target: T1, glucagon receptor (GCGR) (Homo sapiens, UniProt P47871); test: I125-glucagon binding assay (competition, GCGR membrane fractions)
T1 construct: expressed in transfected cells; host or cells: CHO-K1 cells overexpressing GCGR (membrane fractions)
Summary of the method: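 Competition of 0.0625 nM (final) I^125-glucagon for 30 min at 25° C, after 5 min compound preincubation, using 7.5 μg/well GCGR-overexpressing CHO-K1 membranes in 50 mM Tris pH 7.4, 0.5% BSA. Filtration onto PEI-coated GF/B, micro-beta counting, and non-linear regression gave IC50.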

[2] = biological target: T2, glucagon receptor (GCGR) overexpressed CHO-K1 cells or human primary hepatocytes (Homo sapiens, UniProt P47871); test: Glucagon cAMP inhibition assay (Cisbio cAMP Dynamic 2 HTRF); type: cell-based
T2 construct: expressed in transfected cells; host or cells: GCGR overexpressed CHO-K1 cells or human primary hepatocytes (endogenous receptor)
T2 sequence (P47871 26-477): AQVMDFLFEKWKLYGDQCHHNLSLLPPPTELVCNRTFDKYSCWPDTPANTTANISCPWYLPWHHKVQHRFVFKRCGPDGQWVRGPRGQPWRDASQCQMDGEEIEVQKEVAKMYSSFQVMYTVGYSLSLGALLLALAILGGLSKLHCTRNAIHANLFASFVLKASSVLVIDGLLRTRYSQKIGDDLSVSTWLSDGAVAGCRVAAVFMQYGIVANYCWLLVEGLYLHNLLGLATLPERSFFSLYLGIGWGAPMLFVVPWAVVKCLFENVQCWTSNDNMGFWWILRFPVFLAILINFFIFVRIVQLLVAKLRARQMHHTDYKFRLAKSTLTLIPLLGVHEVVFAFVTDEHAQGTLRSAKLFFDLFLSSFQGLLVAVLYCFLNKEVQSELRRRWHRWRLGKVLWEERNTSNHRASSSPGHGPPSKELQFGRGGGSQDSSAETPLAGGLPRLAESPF
Summary of the method: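 HTRF read-out of glucagon-induced cAMP, with IC50 from non-linear regression. Cells (GCGR CHO-K1 or human primary hepatocytes) in HBSS/0.1% BSA/800 nM IBMX took compound dilutions for 30 min (final DMSO 1%), then EC50-level glucagon for 30 min at room temperature, then a 60 min lysis/detection step.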

[3] = competition with I125-glucagon 0.0625 nM, membrane fractions of GCGR overexpressed CHO-K1 cells
[4] = inhibition of glucagon (EC50 concentration) induced cAMP production

T1 sequence (P47871 26-477): as above

Structure (SMILES) | IC50 [1, 3] | IC50 cAMP [2, 4] | IC50 [1] | IC50 cAMP [2]
COc1cc(OC[C@@H](Nc2ccc(C(=O)NCCC(=O)O)cn2)C(C)C)ccc1-c1cc2ccccc2o1 [Compound 14-1, (S)-3-(6-((1-(4-(benzofuran-2-yl)-3-methoxyphenoxy)-3-methylbutan-2-yl)amino)nicotinamido)propanoic Acid] | 750 nM | 1232 nM |  | 
CCCC[C@@H](COc1ccc(-c2ccc(C(F)(F)F)cc2F)c(OC)c1)Nc1ccc(C(=O)NCCC(=O)O)cn1 [Compound 14-2, (S)-3-(6-((1-((2′-fluoro-2-methoxy-4′-(trifluoromethyl)-[1,1′-biphenyl]-4-yl)oxy)hexan-2-yl)amino)nicotinamido)propanoic Acid] | 74 nM | 508 nM |  | 
O=C(NCc1nn[nH]n1)c1ccc(N[C@H](COc2ccc(-c3cc4ccccc4o3)cn2)c2ccccc2)cc1 [Compound 15-1, (S)—N-((2H-tetrazol-5-yl)methyl)-4-((2-((5-(benzofuran-2-yl)pyridin-2-yl)oxy)-1-phenylethyl)amino)benzamide] |  |  | 388 nM | 7356 nM
CC(C)[C@@H](COc1ccc(-c2ccc(C(F)(F)F)cc2)cn1)Nc1ccc(C(=O)NCc2nnn[nH]2)cc1 [Compound 15-2, (S)—N-((1H-tetrazol-5-yl)methyl)-4-((3-methyl-1-((5-(4-(trifluoromethyl)phenyl)pyridin-2-yl)oxy)butan-2-yl)amino)benzamide] |  |  | 390 nM | 1543 nM
CC(C)[C@@H](COc1ccc(-c2cc3ccccc3o2)cn1)Nc1ccc(C(=O)NCCC(=O)O)cc1 [Compound 15-3, (S)-3-(4-((1-((5-(benzofuran-2-yl)pyridin-2-yl)oxy)-3-methylbutan-2-yl)amino)benzamido)propanoic Acid] |  |  | 51 nM | 111 nM
CC(C)(C)c1ccc(-c2ccc(OC[C@@H](Nc3ccc(C(=O)NCCC(=O)O)cc3)c3ccccc3)nc2)cc1 [Compound 15-4] |  |  | 626 nM | 3241 nM
O=C(O)CCNC(=O)c1ccc(N[C@H](COc2ccc(-c3cc4ccccc4o3)cn2)c2ccccc2)cc1 [Compound 15-5, (S)-3-(4-((2-((5-(benzofuran-2-yl)pyridin-2-yl)oxy)-1-phenylethyl)amino)benzamido)propanoic Acid] |  |  | 706 nM | 2067 nM
CC(C)(C)c1ccc(-c2ccc(OC[C@@H](Nc3ccc(C(=O)NC[C@@H](O)C(=O)O)cc3)c3ccccc3)nc2)cc1 [Compound 15-6, (R)-3-(4-(((S)-2-((5-(4-(tert-butyl)phenyl)pyridin-2-yl)oxy)-1-phenylethyl)amino)benzamido)-2-hydroxypropanoic Acid] |  |  | 172 nM | >30000 nM
CC(C)[C@@H](COc1ccc(-c2ccc(C(F)(F)F)cc2)cn1)Nc1ccc(C(=O)NCCC(=O)O)cc1 [Compound 15-7, (S)-3-(4-((3-methyl-1-((5-(4-(trifluoromethyl)phenyl)pyridin-2-yl)oxy)butan-2-yl)amino)benzamido)propanoic Acid] |  |  | 753 nM | 258.8 nM
CC(C)[C@@H](COc1ccc(-c2ccc(C(F)(F)F)cc2)cn1)Nc1ccc(C(=O)NC[C@@H](O)C(=O)O)cc1 [Compound 15-8, (R)-2-hydroxy-3-(4-(((S)-3-methyl-1-((5-(4-(trifluoromethyl)phenyl)pyridin-2-yl)oxy)butan-2-yl)amino)benzamido)propanoic Acid] |  |  | 3300 nM | >30000 nM
CC(C)[C@@H](COc1ccc(-c2ccc(C(F)(F)F)cc2Cl)cn1)Nc1ccc(C(=O)NCCC(=O)O)cc1 [Compound 15-9, (S)-3-(4-((1-((5-(2-chloro-4-(trifluoromethyl)phenyl)pyridin-2-yl)oxy)-3-methylbutan-2-yl)amino)benzamido)propanoic Acid] |  |  | 330 nM | 81.5 nM
CC(C)C[C@@H](COc1ccc(-c2ccc(C(F)(F)F)cc2Cl)cn1)Nc1ccc(C(=O)NCCC(=O)O)cc1 [Compound 15-10, (S)-3-(4-((1-((5-(2-chloro-4-(trifluoromethyl)phenyl)pyridin-2-yl)oxy)-4-methylpentan-2-yl)amino)benzamido)propanoic Acid] |  |  | 80 nM | 198.4 nM
CC(C)C[C@@H](COc1ccc(-c2ccc(C(F)(F)F)cc2)cn1)Nc1ccc(C(=O)NCCC(=O)O)cc1 [Compound 15-11, (S)-3-(4-((4-methyl-1-((5-(4-(trifluoromethyl)phenyl)pyridin-2-yl)oxy)pentan-2-yl)amino)benzamido)propanoic Acid] |  |  | 210 nM | 284.7 nM
CC[C@H](C)[C@@H](COc1ccc(-c2ccc(C(F)(F)F)cc2)cn1)Nc1ccc(C(=O)NCCC(=O)O)cc1 [Compound 15-12, 3-(4-(((2S,3S)-3-methyl-1-((5-(4-(trifluoromethyl)phenyl)pyridin-2-yl)oxy)pentan-2-yl)amino)benzamido)propanoic Acid] |  |  | 376 nM | 294 nM
CC[C@H](C)[C@@H](COc1ccc(-c2ccc(C(F)(F)F)cc2Cl)cn1)Nc1ccc(C(=O)NCCC(=O)O)cc1 [Compound 15-13, 3-(4-(((2S,3S)-1-((5-(2-chloro-4-(trifluoromethyl)phenyl)pyridin-2-yl)oxy)-3-methylpentan-2-yl)amino)benzamido)propanoic Acid] |  |  | 98 nM | 123 nM
CC[C@H](C)[C@@H](COc1ccc(-c2ccc(C(F)(F)F)cc2F)cn1)Nc1ccc(C(=O)NCCC(=O)O)cc1 [Compound 15-14, 3-(4-(((2S,3S)-1-((5-(2-fluoro-4-(trifluoromethyl)phenyl)pyridin-2-yl)oxy)-3-methylpentan-2-yl)amino)benzamido)propanoic Acid] |  |  | 379 nM | 280.6 nM
CC[C@H](C)[C@@H](COc1ccc(-c2cc3ccccc3o2)cn1)Nc1ccc(C(=O)NCCC(=O)O)cc1 [Compound 15-15, 3-(4-(((2S,3S)-1-((5-(benzofuran-2-yl)pyridin-2-yl)oxy)-3-methylpentan-2-yl)amino)benzamido)propanoic Acid] |  |  | 207 nM | 32.73 nM
CC(C)C[C@@H](COc1ccc(-c2ccc(C(F)(F)F)cc2F)cn1)Nc1ccc(C(=O)NCCC(=O)O)cc1 [Compound 15-16, (S)-3-(4-((1-((5-(2-fluoro-4-(trifluoromethyl)phenyl)pyridin-2-yl)oxy)-4-methylpentan-2-yl)amino)benzamido)propanoic Acid] |  |  | 669 nM | 999 nM
CC(C)[C@@H](COc1ccc(-c2ccc(Cl)cc2Cl)cn1)Nc1ccc(C(=O)NCCC(=O)O)cc1 [Compound 15-17, (S)-3-(4-((1-((5-(2,4-dichlorophenyl)pyridin-2-yl)oxy)-3-methylbutan-2-yl)amino)benzamido)propanoic Acid] |  |  | 216 nM | 196 nM
CC(C)C[C@@H](COc1ccc(-c2ccc(C(F)(F)F)cc2Cl)cn1)Nc1ccc(C(=O)NCCS(=O)(=O)O)cc1 [Compound 15-18] |  |  | 1310 nM | >30000 nM
CC(C)C[C@@H](COc1ccc(-c2ccc(C(F)(F)F)nn2)cn1)Nc1ccc(C(=O)NCCC(=O)O)cc1 [Compound 15-19, (S)-3-(4-((4-methyl-1-((5-(6-(trifluoromethyl)pyridazin-3-yl)pyridin-2-yl)oxy)pentan-2-yl)amino)benzamido)propanoic Acid] |  |  | 2990 nM | >30000 nM
CC[C@H](C)[C@@H](COc1ccc(-c2ccc(F)cc2F)cn1)Nc1ccc(C(=O)NCCC(=O)O)cc1 [Compound 15-20, 3-(4-(((2S,3S)-1-((5-(2,4-difluorophenyl)pyridin-2-yl)oxy)-3-methylpentan-2-yl)amino)benzamido)propanoic Acid] |  |  | 382 nM | 1255 nM
CC[C@H](C)[C@@H](COc1ccc(-c2ccc(F)cc2F)cn1)Nc1ccc(C(=O)NCCS(=O)(=O)O)cc1 [Compound 15-21, 2-(4-(((2S,3S)-1-((5-(2,4-difluorophenyl)pyridin-2-yl)oxy)-3-methylpentan-2-yl)amino)benzamido)ethane-1-sulfonic Acid] |  |  | 5280 nM | >30000 nM
CCCC[C@@H](COc1ccc(-c2cc3ccccc3o2)cn1)Nc1ccc(C(=O)NCCC(=O)O)cc1 [Compound 15-22, (S)-3-(4-((1-((5-(benzofuran-2-yl)pyridin-2-yl)oxy)hexan-2-yl)amino)benzamido)propanoic Acid] |  |  | 89 nM | 168 nM
CCCC[C@@H](COc1ccc(-c2cc3ccccc3o2)cn1)Nc1ccc(C(=O)NCCS(=O)(=O)O)cc1 [Compound 15-23, (S)-2-(4-((1-((5-(benzofuran-2-yl)pyridin-2-yl)oxy)hexan-2-yl)amino)benzamido) ethane-1-sulfonic Acid] |  |  | 453 nM | >30000 nM
CCCC[C@@H](COc1ccc(-c2ccc(Cl)cc2Cl)cn1)Nc1ccc(C(=O)NCCC(=O)O)cc1 [Compound 15-24, (S)-3-(4-((1-((5-(2,4-dichlorophenyl)pyridin-2-yl)oxy)hexan-2-yl)amino)benzamido)propanoic Acid] |  |  | 301 nM | 293.9 nM
CCCC[C@@H](COc1ccc(-c2ccc(C(F)(F)F)cc2Cl)cn1)Nc1ccc(C(=O)NCCC(=O)O)cc1 [Compound 15-25, (S)-3-(4-((1-((5-(2-chlor-4-(trifluoromethyl)phenyl)pyridin-2-yl)oxy)hexan-2-yl)amino)benzamido)propanoic Acid] |  |  | 218 nM | 245 nM
